# Experiments:
# Format in all cases: in vivo
# [1] = tested on: Human breast cancer cell line MX-1; test: Antitumor study (4): MX-1 subcutaneous xenograft; conditions: Day 51; MX-1 s.c. in female SCID mice; Compound A feed mix 0.3% Day 13 to Day 41; HER2-ADC (1) 3 mg/kg i.v. Day 17
# Description: (§1) Measurement and calculation formula: In all studies, the major axis and minor axis of tumors were measured once a week or twice a week with an electronic digital caliper, and the estimated tumor volume (mm^3) was calculated. The calculation formula is as shown below.
# (§2) Tumor growth inhibition (TGI) was calculated in accordance with the following calculation formula.
# (§3) [formula] • T: Average estimated tumor volume of mice of test substance administration group • C: Average estimated tumor volume of mice of control group
# (§4) The HER2-ADC (1) was diluted with ABS buffer (10 mM acetate buffer [pH 5.5], 5% sorbitol), and intravenously administered in a fluid volume of 10 mL/kg to the tail vein. The Compound A was orally administered by a feed mix containing 0.3% of Compound A.
# (§5) These methods are common to Examples 5 to 8, and Examples 11 to 16. In Example 12 to Example 16, TROP2-ADC (1), HER3-ADC (1), CD37-ADC (1), or B7-H3-ADC (1) was used in the evaluation. Moreover, the Compound A was orally administered by a feed mix containing 0.25% of Compound A in Example 12 to Example 16.
# Human breast cancer cell line MX-1, which was purchased from CLS (Cell Lines Service), was suspended into 50% Matrigel matrix and subcutaneously transplanted at 5×10^6 cells into the right side of each female SCID mouse (CLEA Japan, Inc.) (Day 0). […]
# [2] = tested on: Human breast cancer cell line JIMT-1; test: Antitumor study (2): JIMT-1 subcutaneous xenograft, HER2-ADC (1); conditions: Day 52; JIMT-1 s.c. in female SCID mice; Compound A feed mix 0.3% Day 14 to Day 42; HER2-ADC (1) 10 mg/kg i.v. Day 18
# Description: as §1, §2, §3, §4, §5
# Human breast cancer cell line JIMT-1, which was purchased from DSMZ (Deutsche Sammlung von Mikroorganismen und Zellkulturen GmbH), was suspended into DPBS and subcutaneously transplanted at 5×10^6 cells into the right side of each female SCID mouse (CLEA Japan, Inc.) (Day 0). […]
# [3] = tested on: Human gastric cancer cell line NCI-N87; test: Antitumor study (1): NCI-N87 subcutaneous xenograft; conditions: Day 63; NCI-N87 s.c. in female SCID mice; Compound A feed mix 0.3% Day 6 to Day 34; HER2-ADC (1) 2 mg/kg i.v. Day 10
# Description: as §1, §2, §3, §4, §5
# Human gastric cancer cell line NCI-N87, which was purchased from ATCC (American Type Culture Collection), was suspended into DPBS (Dulbecco's phosphate-buffered saline) and subcutaneously transplanted at 1×10^7 cells into the right side of each female SCID (Severe Combined Immunodeficient) mouse (CLEA Japan, Inc.) (Day 0). […]
# [4] = tested on: Human non-small lung cancer cell line NCI-H358; test: Antitumor study (7): NCI-H358 subcutaneous xenograft; conditions: Day 115; NCI-H358 s.c. in female SCID mice; Compound A feed mix 0.25% Day 24 to Day 66; TROP2-ADC (1) 10 mg/kg i.v. Day 24 and Day 45
# Description: as §1, §2, §3, §4, §5
# Human non-small lung cancer cell line NCI-H358, which was purchased from ATCC (American Type Culture Collection), was suspended into 50% Matrigel matrix and subcutaneously transplanted at 3×10^6 cells into the right side of each female SCID mouse (CLEA Japan, Inc.) (Day 0). […]
# [5] = tested on: Human breast cancer cell line ZR-75-1; test: Antitumor study (5): ZR-75-1 subcutaneous xenograft; conditions: Day 49; ZR-75-1 s.c. in female NSG mice (estradiol cypionate weekly); Compound A feed mix 0.3% Day 14 to Day 42; HER2-ADC (1) 5 mg/kg i.v. Day 14
# Description: as §1, §2, §3, §4
# as §5, with “Example 16. […]” for “Example 16.”
# [6] = tested on: Human breast cancer cell line MDA-MB-453; test: Antitumor study (3): MDA-MB-453 subcutaneous xenograft; conditions: Day 74; MDA-MB-453 s.c. in female SCID mice; Compound A feed mix 0.3% Day 18 to Day 46; HER2-ADC (1) 1 mg/kg i.v. Day 22
# Description: as §1, §2, §3, §4, §5
# Human breast cancer cell line MDA-MB-453, which was purchased from ATCC, was suspended into 50% Matrigel matrix and subcutaneously transplanted at 1×10^7 cells into the right side of each female SCID mouse (CLEA Japan, Inc.) (Day 0). Eighteen days later, the mice were divided into groups based on estimated tumor volumes. […]
# [7] = tested on: Human breast cancer cell line JIMT-1; test: Antitumor study (8): JIMT-1 subcutaneous xenograft, HER3-ADC (1); conditions: Day 46; JIMT-1 s.c. in female SCID mice; Compound A feed mix 0.25% Day 11 to Day 39; HER3-ADC (1) 10 mg/kg i.v. Day 11
# Description: as §1, §2, §3, §4, §5
# Human breast cancer cell line JIMT-1, which was purchased from DSMZ (Deutsche Sammlung von Mikroorganismen und Zellkulturen GmbH), was suspended into saline and subcutaneously transplanted at 5×10^6 cells into the right side of each female SCID mouse (CLEA Japan, Inc.) (Day 0). […]
# [8] = tested on: Human diffuse large B-cell lymphoma cell line WSU-DLCL2; test: Antitumor study (9): WSU-DLCL2 subcutaneous xenograft; conditions: Day 44; WSU-DLCL2 s.c. in female SCID mice; Compound A feed mix 0.25% Day 16 to Day 44; CD37-ADC (1) 1 mg/kg i.v. Day 16
# Description: as §1, §2, §3, §4, §5
# Human diffuse large B-cell lymphoma cell line WSU-DLCL2, which was purchased from DSMZ (Deutsche Sammlung von Mikroorganismen und Zellkulturen GmbH), was suspended into DPBS and subcutaneously transplanted at 1×10^7 cells into the right side of each female SCID mouse (CLEA Japan, Inc.) (Day 0). […]
# [9] = tested on: Human neuroendocrine prostate cancer cell line NCI-H660; test: Antitumor study (10): NCI-H660 subcutaneous xenograft; conditions: Day 58; NCI-H660 s.c. in castrated male SCID mice; Compound A feed mix 0.25% Day 29 to Day 58; B7-H3-ADC (1) 0.3 mg/kg i.v. Day 29 and Day 43
# Description: as §1, §2, §3, §4, §5
# Human neuroendocrine prostate cancer cell line NCI-H660, which was purchased from ATCC (American Type Culture Collection), was suspended into 50% Matrigel matrix and subcutaneously transplanted at 2×10^6 cells into the right side of each castrated male SCID mouse (CLEA Japan, Inc.) (Day 0). […]
# [10] = tested on: Human non-small lung cancer cell line Calu-3; test: Antitumor study (6): Calu-3 subcutaneous xenograft; conditions: Day 35; Calu-3 s.c. in female SCID mice; Compound A feed mix 0.3% Day 14 to Day 42; HER2-ADC (1) 1 mg/kg i.v. Day 14
# Description: as §1, §2, §3, §4, §5
# Human non-small lung cancer cell line Calu-3, which was purchased from ATCC (American Type Culture Collection), was suspended into Matrigel matrix and subcutaneously transplanted at 3×10^6 cells into the right side of each female SCID mouse (The Jackson Laboratory Japan, Inc.) (Day 0). […]
compound,measurement,setting,value
"Cc1cc(C)c(CNC(=O)c2cc(Cl)c3c(c2C)O[C@@](C)([C@H]2CC[C@H](N(C)C)CC2)O3)c(=O)[nH]1 [Compound A, (2R)-7-chloro-2-[trans-4-(dimethylamino)cyclohexyl]-N-[(4,6-dimethyl-2-oxo-1,2-dihydropyridin-3-yl)methyl]-2,4-dimethyl-1,3-benzodioxole-5-carboxamide p-toluene sulfonate]",Tumor growth inhibition (TGI),[1],9%
same,Tumor growth inhibition (TGI),[2],19%
same,Tumor growth inhibition (TGI),[3],38%
same,Tumor growth inhibition (TGI),[4],20%
same,Tumor growth inhibition (TGI),[5],53%
same,Tumor growth inhibition (TGI),[6],41%
same,Tumor growth inhibition (TGI),[7],41%
same,Tumor growth inhibition (TGI),[8],31%
same,Tumor growth inhibition (TGI),[9],80%
same,Tumor growth inhibition (TGI),[10],20%

# Source: patent publication US20250276079A1, “COMBINATION OF ANTIBODY-DRUG CONJUGATE WITH EZH1 and/or EZH2 INHIBITOR” (DAIICHI SANKYO COMPANY, LIMITED, priority 2022, published 2025)
